Columns and labels:
Type in all cases: in vivo
[1] = system: Italian ryegrass (Lolium multiflorum); experiment: Test E pre-/postemergence greenhouse test, plant response rating 0-100; conditions: Lolium multiflorum, post-emergence, Postemergence, scale 0 to 100; for pest or weed control at 125 g/ha: 125 g ai/ha; for pest or weed control at 500 g/ha: 500 g ai/ha
Procedure, shortened: (§1)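 Ratings (0 no effect to 100 complete control) came from visual comparison with untreated controls 14 to 21 days after treatment. Compounds in a surfactant-containing non-phytotoxic solvent were applied preemergence to seeded silt loam and postemergence to plants at the 1- to 4-leaf stage.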

corn (Zea mays) = experiment: as above; conditions: Zea mays, post-emergence, Postemergence, scale 0 to 100; for Corn plant response rating (crop injury, 0 = no effect, 100 = complete kill) at 125 g/ha: 125 g ai/ha; for Corn plant response rating (crop injury, 0 = no effect, 100 = complete kill) at 500 g/ha: 500 g ai/ha
Procedure, shortened: as §1

[2] = system: field bindweed (Convolvulus arvensis); experiment: as above; conditions: Convolvulus arvensis, post-emergence, Postemergence, scale 0 to 100; for pest or weed control at 125 g/ha: 125 g ai/ha; for pest or weed control at 500 g/ha: 500 g ai/ha
Procedure, shortened: as §1

soybean (Glycine max) = experiment: as above; conditions: Glycine max, post-emergence, Postemergence, scale 0 to 100; for plant injury at 125 g/ha: 125 g ai/ha; for plant injury at 500 g/ha: 500 g ai/ha
Procedure, shortened: as §1

[3] = system: waterhemp_RES1, (ALS & Triazine resistant common waterhemp, Amaranthus rudis); experiment: Test E postemergence greenhouse test, plant response rating 0-100; conditions: scale 0 to 100
Procedure, shortened: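 Resistant waterhemp biotypes grown in peat/vermiculite medium and treated postemergence at 2–18 cm height (1- to 4-leaf stage). Kept in greenhouse 14 to 21 days, then visually rated against untreated controls on a 0–100 scale (0 no effect, 100 complete control).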

| SMILES | pest or weed control at 125 g/ha [1] | pest or weed control at 500 g/ha [1] | Corn plant response rating (crop injury, 0 = no effect, 100 = complete kill) at 125 g/ha (corn (Zea mays)) | Corn plant response rating (crop injury, 0 = no effect, 100 = complete kill) at 500 g/ha (corn (Zea mays)) | pest or weed control at 125 g/ha [2] | pest or weed control at 500 g/ha [2] | plant injury at 125 g/ha (soybean (Glycine max)) | plant injury at 500 g/ha (soybean (Glycine max)) | Plant response rating, Waterhemp_RES1 ([3]; 125 g ai/ha) | Plant response rating, Waterhemp_RES1 ([3]; 500 g ai/ha) | further results |
| --- | --- | --- | --- | --- | --- | --- | --- | --- | --- | --- | --- |
| CCOC(OCC)(c1ccccc1)c1c[nH]nc1-c1cc(Cl)cc(Cl)c1 [Compound 14, 3-(3,5-dichlorophenyl)-4-(diethoxyphenylmethyl)-1H-pyrazole] | 0% | 0% | 0% | 0% | 0% | 0% | 0% | 0% | 95 | 100 | pest or weed control at 31 g/ha ([1]; 31 g ai/ha): 0%; pest or weed control at 62 g/ha ([1]; 62 g ai/ha): 0%; pest or weed control at 250 g/ha ([1]; 250 g ai/ha): 0%; Corn plant response rating (crop injury, 0 = no effect, 100 = complete kill) at 31 g/ha (corn (Zea mays); 31 g ai/ha): 0%; Corn plant response rating (crop injury, 0 = no effect, 100 = complete kill) at 62 g/ha (corn (Zea mays); 62 g ai/ha): 0%; Corn plant response rating (crop injury, 0 = no effect, 100 = complete kill) at 250 g/ha (corn (Zea mays); 250 g ai/ha): 0%; pest or weed control at 31 g/ha ([2]; 31 g ai/ha): 0%; pest or weed control at 62 g/ha ([2]; 62 g ai/ha): 0%; pest or weed control at 250 g/ha ([2]; 250 g ai/ha): 0%; plant injury at 31 g/ha (soybean (Glycine max); 31 g ai/ha): 0%; plant injury at 62 g/ha (soybean (Glycine max); 62 g ai/ha): 0%; plant injury at 250 g/ha (soybean (Glycine max); 250 g ai/ha): 0%; Plant response rating, Waterhemp_RES1 ([3]; 31 g ai/ha): 90; Plant response rating, Waterhemp_RES1 ([3]; 62 g ai/ha): 95; Plant response rating, Waterhemp_RES1 ([3]; 250 g ai/ha): 100 |
| COC(OC)(c1ccccc1)c1c[nH]nc1-c1cc(Cl)cc(Cl)c1 [Compound 13, 3-(3,5-dichlorophenyl)-4-(dimethoxyphenylmethyl)-1H-pyrazole] | 0% | 0% | 0% | 0% | 0% | 10% | 0% | 0% | 90 | 100 |  |

Source: patent US10167262B2, “Herbicidal substituted 3-arylpyrazoles” (FMC CORPORATION, priority 2014, dated 2019)
